Data: the NIST ThermoML archive (doi:10.1021/je700322p)
Numbers after ± are expanded uncertainties.

Conditions: Liquid

CCO [ethanol]
Conditions | vapor or sublimation pressure [kPa]
321 K | 26.41 ± 0.18
324 K | 30.53 ± 0.18
327 K | 35.19 ± 0.19
330 K | 40.44 ± 0.19
333 K | 46.34 ± 0.2
336 K | 52.96 ± 0.21
339 K | 60.35 ± 0.21
342 K | 68.6 ± 0.22
345 K | 77.77 ± 0.23
348 K | 87.96 ± 0.25
351 K | 99.24 ± 0.26
354 K | 111.7 ± 0.28
357 K | 125.44 ± 0.3
359 K | 135.37 ± 0.31

CCOC(C)=O [ethyl acetate]
Conditions | vapor or sublimation pressure [kPa]
310 K | 21.72 ± 0.17
313 K | 24.78 ± 0.17
316 K | 28.18 ± 0.18
319 K | 31.95 ± 0.18
322 K | 36.12 ± 0.19
325 K | 40.73 ± 0.19
328 K | 45.8 ± 0.2
331 K | 51.36 ± 0.2
334 K | 57.46 ± 0.21
337 K | 64.13 ± 0.22
340 K | 71.4 ± 0.23
343 K | 79.32 ± 0.24
346 K | 87.93 ± 0.25
349 K | 97.26 ± 0.26
352 K | 107.36 ± 0.27
355 K | 118.27 ± 0.29
358 K | 130.03 ± 0.3
359 K | 134.15 ± 0.31
